Experimental data: US12466839B2, “Allosteric AKT inhibitors for use in the treatment of Hereditary Hemorrhagic Telangiectasia” (VADERIS THERAPEUTICS AG, priority 2020, dated 2025)

Assays:
[1] = system: AVM formation in Eng-iKO mice; experiment: Prevention of AVM formation in Eng-iKO mice (retinal vascular network); assay type: in vivo, mouse
Method: The Eng Flox/flox; cdh5-CreERT2 were injected with tamoxifen (50 μg) at P2 to […] once at P3, P4, P5 and P6. The same volume of vehicle was injected serving as control animals. Mice were then euthanized at P7 and retinas processed for immunofluorescence staining as described (Lebrin et al., as above).
The same volume of vehicle was injected serving as control animals. Mice were then euthanized at P7 and retinas processed for immunofluorescence staining as described (Lebrin et al., as above).
For the retinal vascular network, quantification of the number of AV shunts per mouse was done manually. […] A custom own-lab made macro allowed automatic processing of the images, using the same processing and quantification parameters. Briefly, the brightness of the images was enhanced by modifying the pixel extreme values, which depends on the specific image histogram content. A Gaussian filter was applied to reduce the intensity in homogeneities. The filter order depended on the image resolution. Next, the threshold step was computed, based on a global threshold technique such as Otsu's method or Li's method, resulting in binary image. A median filter was then applied to eliminate potential local irregularities, which could cause false branching point detection. From the binary images, the vascular density was quantified (calculated as the ratio of pixels associated with the vessels divided by the total number of pixels in the image). For the other parameters, a skeleton of the images was first computed using ImageJ, then the total vascular length was quantified using the Measure Skeleton Length plug-in from ImageJ. The number of branch points was extracted from the Analyze Skeleton plug-in of ImageJ. All results were transferred to Microsoft Office Excel software and automatically rearranged using a lab custom-made program. As all images generated at each step of the processing were saved, a visual control was made to ensure that there were no aberrant results.
Statistical analysis was performed with Prism 7 software (GraphPad). For most of the experiments, 1-way ANOVA was used for multiple comparisons. Results are expressed as mean±SEM. For post hoc pairwise, the Dunnett's test was used. A value of *P<0.05, **P<0.01, ***P<0.001 or ****P<0.0001 denotes statistical significance. An in-group variation of around 15% in parameters related to blood vessel architecture changes has been previously observed by the inventors, therefore a difference between controls and mutant mice of around 20-30% was anticipated. It was therefore expected that a group of 8 mice per condition would reveal statistical differences.
Eyes were fixed in 4% paraformaldehyde (PFA) in PBS at room temperature for 10 min, retinas were dissected, post-fixed in 4% PFA in PBS at 4° C. overnight then processed for immunostaining. Retinas were permeabilized in PBS, 1% BSA and 0.5% Triton X-100 at 4° C. overnight, rinsed in PBS, washed twice in PBlec (PBS, pH 6.8, 1% Triton-X-100, 0.1 mM CaCl2, 0.1 mM MgCl2, 0.1 mM MnCl2), and then incubated in biotinylated Griffonia simplicifolia lectin (isolectin B4) (B-1205, Vector Laboratories, 1:50) in PBlec at 4° C. overnight. After 5 washes in PBS, samples were incubated with streptavidin Cy-3 (PA43001, Sigma-Aldrich, 1:100) and with a-SMA (clone 1A4) (F3777, Sigma-Aldrich) conjugated with FITC diluted in PBS, 0.5% BSA, and 0.25% X-100 at 4° C. for 2 h. After washing, flat whole-mount retinas were mounted in DAKO medium (S3023, Dako). Complete high-resolution 3-dimensional rendering of whole-mount retinas was acquired using Laser Scanning Microscope SP5 or SP8 (Leica).

5-HT1A = molecular target: T1, 5-HT1A (Homo sapiens, UniProt P08908); experiment: Millipore Drug Discovery Safety and Liability Panel; assay type: cell-based
T1 construct: purchased Millipore

A3 = molecular target: T2, A3 (Homo sapiens, UniProt P0DMS8); experiment: as above; assay type: cell-based
T2 construct: purchased Millipore

CRF1 = molecular target: T3, CRF1 (Homo sapiens, UniProt P34998); experiment: as above; assay type: cell-based
T3 construct: purchased Millipore

CysLT1 = molecular target: T4, CysLT1 (Homo sapiens, UniProt Q9Y271); experiment: as above; assay type: cell-based
T4 construct: purchased Millipore

D2 = molecular target: T5, D2 (Homo sapiens, UniProt P14416); experiment: as above; assay type: cell-based
T5 construct: purchased Millipore

IP1 = molecular target: T6, IP1 (Homo sapiens, UniProt P43119); experiment: as above; assay type: cell-based
T6 construct: purchased Millipore

LPA1 = molecular target: T7, LPA1 (Homo sapiens, UniProt Q92633); experiment: as above; assay type: cell-based
T7 construct: purchased Millipore

MC5 = molecular target: T8, MC5 (Homo sapiens, UniProt P33032); experiment: as above; assay type: cell-based
T8 construct: purchased Millipore

NMU1 = molecular target: T9, NMU1 (Homo sapiens, UniProt Q9HB89); experiment: as above; assay type: cell-based
T9 construct: Millipore

OT = molecular target: T10, OT (Homo sapiens, UniProt P30559); experiment: as above; assay type: cell-based
T10 construct: Millipore

TP = molecular target: T11, TP (Homo sapiens, UniProt P21731); experiment: as above; assay type: cell-based
T11 construct: Millipore

V1A = molecular target: T12, V1A (Homo sapiens, UniProt P37288); experiment: as above; assay type: cell-based
T12 construct: Millipore

VPAC1 = molecular target: T13, VPAC1 (Homo sapiens, UniProt P32241); experiment: as above; assay type: cell-based
T13 construct: Millipore

[2] = read-out: AGONIST mean % increase in activity
[3] = read-out: ANTAGONIST mean % inhibition

T13 sequence (P32241 31-457): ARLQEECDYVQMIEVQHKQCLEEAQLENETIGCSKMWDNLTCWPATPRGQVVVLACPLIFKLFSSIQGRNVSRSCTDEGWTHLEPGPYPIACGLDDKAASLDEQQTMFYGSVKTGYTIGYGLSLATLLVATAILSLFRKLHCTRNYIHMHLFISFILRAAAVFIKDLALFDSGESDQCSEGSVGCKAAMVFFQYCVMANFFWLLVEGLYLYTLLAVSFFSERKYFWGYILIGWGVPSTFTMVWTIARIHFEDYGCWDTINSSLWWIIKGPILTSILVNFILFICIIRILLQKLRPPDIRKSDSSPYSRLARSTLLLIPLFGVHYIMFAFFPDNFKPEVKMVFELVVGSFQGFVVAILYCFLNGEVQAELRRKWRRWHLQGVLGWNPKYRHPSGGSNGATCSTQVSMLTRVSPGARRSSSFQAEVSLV
T9 sequence (Q9HB89 whole entry): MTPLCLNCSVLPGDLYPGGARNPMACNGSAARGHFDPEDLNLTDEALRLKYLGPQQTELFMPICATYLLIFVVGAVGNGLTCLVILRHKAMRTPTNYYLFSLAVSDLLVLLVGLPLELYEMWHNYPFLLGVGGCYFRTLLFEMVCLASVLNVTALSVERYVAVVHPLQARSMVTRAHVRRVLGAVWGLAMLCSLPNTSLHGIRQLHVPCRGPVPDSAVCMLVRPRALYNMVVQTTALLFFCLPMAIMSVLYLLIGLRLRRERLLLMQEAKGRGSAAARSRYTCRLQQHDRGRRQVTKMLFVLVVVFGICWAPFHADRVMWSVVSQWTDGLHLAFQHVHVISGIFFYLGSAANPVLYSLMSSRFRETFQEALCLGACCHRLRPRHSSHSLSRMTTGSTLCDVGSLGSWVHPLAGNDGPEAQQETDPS
T4 sequence (Q9Y271 whole entry): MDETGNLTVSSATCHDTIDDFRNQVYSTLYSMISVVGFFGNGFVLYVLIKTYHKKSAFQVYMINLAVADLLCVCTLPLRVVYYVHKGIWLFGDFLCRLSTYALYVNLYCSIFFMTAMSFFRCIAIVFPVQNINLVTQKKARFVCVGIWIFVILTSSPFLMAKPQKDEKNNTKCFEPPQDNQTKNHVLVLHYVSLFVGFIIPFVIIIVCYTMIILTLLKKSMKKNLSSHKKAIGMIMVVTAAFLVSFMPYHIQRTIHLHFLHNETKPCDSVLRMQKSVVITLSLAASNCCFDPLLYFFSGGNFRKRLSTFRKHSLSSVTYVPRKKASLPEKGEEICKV
T1 sequence (P08908 whole entry, species assumed): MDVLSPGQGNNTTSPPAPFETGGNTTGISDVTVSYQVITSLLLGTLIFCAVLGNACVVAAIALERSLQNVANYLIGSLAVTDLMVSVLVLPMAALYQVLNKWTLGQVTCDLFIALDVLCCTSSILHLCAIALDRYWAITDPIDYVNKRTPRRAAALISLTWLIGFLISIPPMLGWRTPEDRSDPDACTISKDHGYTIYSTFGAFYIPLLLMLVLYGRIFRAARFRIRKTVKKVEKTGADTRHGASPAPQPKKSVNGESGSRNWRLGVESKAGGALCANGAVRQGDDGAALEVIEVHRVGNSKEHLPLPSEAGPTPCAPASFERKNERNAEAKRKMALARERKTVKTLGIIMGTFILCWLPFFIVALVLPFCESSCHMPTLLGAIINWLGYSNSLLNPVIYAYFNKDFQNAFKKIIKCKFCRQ
T5 sequence (P14416 whole entry): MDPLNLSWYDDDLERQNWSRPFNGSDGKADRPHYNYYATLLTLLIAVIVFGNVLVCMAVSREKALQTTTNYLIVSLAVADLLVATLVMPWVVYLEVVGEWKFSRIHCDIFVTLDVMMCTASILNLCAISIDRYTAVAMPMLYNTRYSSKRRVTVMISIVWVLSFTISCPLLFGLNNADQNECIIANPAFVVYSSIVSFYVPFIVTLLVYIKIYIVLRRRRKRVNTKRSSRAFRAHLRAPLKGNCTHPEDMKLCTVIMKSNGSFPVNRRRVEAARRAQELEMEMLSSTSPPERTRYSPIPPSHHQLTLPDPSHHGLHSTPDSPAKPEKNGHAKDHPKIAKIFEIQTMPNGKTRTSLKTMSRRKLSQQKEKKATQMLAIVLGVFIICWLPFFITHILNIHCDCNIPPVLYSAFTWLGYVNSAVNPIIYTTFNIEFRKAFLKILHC
T6 sequence (P43119 whole entry): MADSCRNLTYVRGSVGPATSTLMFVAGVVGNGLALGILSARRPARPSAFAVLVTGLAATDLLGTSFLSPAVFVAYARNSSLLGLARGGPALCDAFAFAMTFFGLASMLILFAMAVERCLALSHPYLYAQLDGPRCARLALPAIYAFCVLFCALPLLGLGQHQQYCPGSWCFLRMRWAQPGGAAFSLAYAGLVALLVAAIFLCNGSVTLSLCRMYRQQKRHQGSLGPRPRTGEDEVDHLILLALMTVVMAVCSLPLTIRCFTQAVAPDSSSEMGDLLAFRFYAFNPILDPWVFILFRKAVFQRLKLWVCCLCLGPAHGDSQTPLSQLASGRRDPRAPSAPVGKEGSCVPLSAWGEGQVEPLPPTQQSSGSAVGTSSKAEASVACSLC
T10 sequence (P30559 whole entry): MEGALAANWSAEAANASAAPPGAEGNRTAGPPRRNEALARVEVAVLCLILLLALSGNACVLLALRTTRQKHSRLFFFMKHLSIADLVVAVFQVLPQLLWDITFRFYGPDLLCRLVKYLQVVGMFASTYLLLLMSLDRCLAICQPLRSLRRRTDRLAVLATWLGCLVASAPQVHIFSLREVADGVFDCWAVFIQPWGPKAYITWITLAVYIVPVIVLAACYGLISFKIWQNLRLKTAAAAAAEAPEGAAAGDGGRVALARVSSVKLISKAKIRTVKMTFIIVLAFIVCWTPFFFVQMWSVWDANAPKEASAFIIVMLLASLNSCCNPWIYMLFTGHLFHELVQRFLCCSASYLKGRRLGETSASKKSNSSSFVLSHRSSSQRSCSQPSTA
T2 sequence (P0DMS8 whole entry): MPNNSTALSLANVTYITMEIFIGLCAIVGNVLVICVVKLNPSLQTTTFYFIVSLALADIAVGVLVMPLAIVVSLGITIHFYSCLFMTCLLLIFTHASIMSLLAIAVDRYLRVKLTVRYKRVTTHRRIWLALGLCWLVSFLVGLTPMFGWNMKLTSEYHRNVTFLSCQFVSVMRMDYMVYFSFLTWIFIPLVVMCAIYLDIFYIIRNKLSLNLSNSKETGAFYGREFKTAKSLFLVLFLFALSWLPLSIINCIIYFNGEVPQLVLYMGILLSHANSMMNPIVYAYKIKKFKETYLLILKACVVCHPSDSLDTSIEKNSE
T3 sequence (P34998 24-415): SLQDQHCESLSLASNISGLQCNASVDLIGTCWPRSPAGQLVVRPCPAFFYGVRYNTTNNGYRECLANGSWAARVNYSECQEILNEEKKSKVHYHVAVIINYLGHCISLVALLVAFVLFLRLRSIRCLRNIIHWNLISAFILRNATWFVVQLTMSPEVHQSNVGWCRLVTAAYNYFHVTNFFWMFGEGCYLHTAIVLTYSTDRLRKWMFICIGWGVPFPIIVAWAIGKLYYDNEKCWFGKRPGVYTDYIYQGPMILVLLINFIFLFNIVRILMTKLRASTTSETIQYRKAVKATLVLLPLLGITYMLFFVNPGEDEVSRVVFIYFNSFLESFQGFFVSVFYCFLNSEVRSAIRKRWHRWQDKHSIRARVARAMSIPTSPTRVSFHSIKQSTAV
T12 sequence (P37288 whole entry): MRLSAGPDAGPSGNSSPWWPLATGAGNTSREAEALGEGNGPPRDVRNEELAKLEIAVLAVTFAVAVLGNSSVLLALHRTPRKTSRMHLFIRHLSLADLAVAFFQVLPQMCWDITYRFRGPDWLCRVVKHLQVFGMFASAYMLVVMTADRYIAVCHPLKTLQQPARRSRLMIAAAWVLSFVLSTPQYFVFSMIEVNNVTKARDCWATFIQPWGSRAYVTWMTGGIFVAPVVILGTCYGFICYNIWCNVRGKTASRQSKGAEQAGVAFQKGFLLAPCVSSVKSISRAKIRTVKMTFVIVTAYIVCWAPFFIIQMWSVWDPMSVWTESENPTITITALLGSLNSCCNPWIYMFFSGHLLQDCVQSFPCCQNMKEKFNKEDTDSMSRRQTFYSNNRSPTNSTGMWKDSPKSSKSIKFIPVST
T7 sequence (Q92633 whole entry, species assumed): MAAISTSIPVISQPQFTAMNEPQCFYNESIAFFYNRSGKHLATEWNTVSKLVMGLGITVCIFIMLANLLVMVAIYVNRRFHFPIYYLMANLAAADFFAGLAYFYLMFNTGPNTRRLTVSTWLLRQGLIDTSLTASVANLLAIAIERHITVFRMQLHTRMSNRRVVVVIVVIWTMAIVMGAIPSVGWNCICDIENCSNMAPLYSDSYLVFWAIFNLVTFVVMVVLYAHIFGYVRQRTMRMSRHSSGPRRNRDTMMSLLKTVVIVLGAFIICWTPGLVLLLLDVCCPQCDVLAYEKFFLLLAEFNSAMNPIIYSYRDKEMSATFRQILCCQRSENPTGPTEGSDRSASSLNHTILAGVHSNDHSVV
T11 sequence (P21731 whole entry): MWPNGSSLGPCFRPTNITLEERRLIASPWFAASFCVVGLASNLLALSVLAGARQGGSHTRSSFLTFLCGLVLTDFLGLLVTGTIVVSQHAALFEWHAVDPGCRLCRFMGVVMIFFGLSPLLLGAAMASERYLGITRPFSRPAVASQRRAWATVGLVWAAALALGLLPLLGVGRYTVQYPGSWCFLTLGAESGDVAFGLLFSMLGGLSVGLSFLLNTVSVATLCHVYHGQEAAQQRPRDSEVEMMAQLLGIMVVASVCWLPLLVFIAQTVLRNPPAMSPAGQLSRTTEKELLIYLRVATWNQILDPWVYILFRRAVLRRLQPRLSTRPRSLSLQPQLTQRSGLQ

CCN1C(=O)COc2nc(-c3ccc(C4(N)CC(O)C4)cc3)c(-c3ccccc3)cc21.O=C(O)C(O)C(O)C(=O)O [VAD044, 6-(4-(1-amino-3-hydroxycyclobutyl)phenyl)-1-ethyl-7-phenyl-1H-pyrido[2,3-b][1,4]oxazin-2(3H)-one L-tartrate]
prevention of AVM shunt formation ([1]; 2.5 mg·kg−1): fully prevent AVM shunt formation
density of the retinal vascular network ([1]; Eng-iKO mice): normalize the density
number of branch points of the Eng-iKO vascular network ([1]; Eng-iKO mice): slightly reducing
radial expansion of the Eng-iKO vascular network ([1]; Eng-iKO mice): slightly reducing
prevention of AV shunt formation ([1]; Eng-iKO mice, 1.25 mg·kg-1): not to be effective
prevention of AV shunt formation ([1]; Eng-iKO mice, 2.5 mg·kg-1 and above, at P3 and P5): efficiently prevented AV shunt formation
minimal effective dose ([1]; HHT1 (Eng-iKO) mouse model): 2.5 mg/kg
activation at 10 µM (5-HT1A; [2]): 2.1%
inhibition at 10 µM (5-HT1A; [3]): 30.6%
activation at 10 µM (A3; [2]): 0.2%
inhibition at 10 µM (A3; [3]): 28.5%
activation at 10 µM (CRF1; CRF1, 10 μM, read-out: AGONIST mean % increase in activity): 0%
inhibition at 10 µM (CRF1; [3]): 2.3%
activation at 10 µM (CysLT1; CysLT1, 10 μM, read-out: AGONIST mean % increase in activity): -0.8%
inhibition at 10 µM (CysLT1; [3]): 1.5%
activation at 10 µM (D2; D2, 10 μM, read-out: AGONIST mean % increase in activity): -1.1%
inhibition at 10 µM (D2; [3]): -0.2%
activation at 10 µM (IP1; IP1, 10 μM, read-out: AGONIST mean % increase in activity): 1.1%
inhibition at 10 µM (IP1; [3]): -2.6%
activation at 10 µM (LPA1; [2]): -1.3%
inhibition at 10 µM (LPA1; [3]): 57.4%
activation at 10 µM (MC5; MC5, 10 μM, read-out: AGONIST mean % increase in activity): -0.2%
inhibition at 10 µM (MC5; [3]): 8.4%
activation at 10 µM (NMU1; NMU1, 10 μM, read-out: AGONIST mean % increase in activity): -3.1%
inhibition at 10 µM (NMU1; [3]): 5.5%
activation at 10 µM (OT; [2]): -1.2%
inhibition at 10 µM (OT; [3]): 29.5%
activation at 10 µM (TP; TP, 10 μM, read-out: AGONIST mean % increase in activity): -0.5%
inhibition at 10 µM (TP; [3]): 0%
activation at 10 µM (V1A; V1A, 10 μM, read-out: AGONIST mean % increase in activity): -1.5%
inhibition at 10 µM (V1A; [3]): 2.5%
activation at 10 µM (VPAC1; VPAC1, 10 μM, read-out: AGONIST mean % increase in activity): -0.7%
inhibition at 10 µM (VPAC1; [3]): 8.5%
